From patent US20070105782A1, “Protectant Combinations for Reducing Toxicities” (BOARD OF TRUSTEES OF SOUTHERN ILLINOIS UNIVERSITY, priority 2005, published 2007)

Assays:
[1] = tested on: male Wistar rats; conditions: pretreated 30 minutes prior to CDDP infusion
[2] = cited from earlier work

For CSCC[C@@H](N)C(=O)O [D-methionine], the “survival until the end of the study period” value [1] is listed as “all of the animals in each of these groups are expected to survive”, the “excreted without conversion to the L-isomer” value ([2]; humans, except in L-methionine deprivation) is listed as 60-70% and the “plasma levels compared with L-methionine” value ([2]; in the human) is listed as “higher plasma levels than L-methionine”.
